Patent publication US9757380B2 (Southern Research Institute, priority 2007, dated 2017)

Tests used:
Format in all cases: in vivo, mice
[1] = tested on: HCT-116 (colon); assay: HCT-116 colon xenograph model, clofarabine combined with radiation; conditions: clofarabine 30mg/kg/dose, ip, d. 13-24, radiation 2 Gy
Text: (§1) Xenograph models including DU-145 (prostate), NCI-H460 NSCL (lung), SF-295 CNS (glioblastoma), SR475HN (head and neck), PANC-1 (pancreatic), and HCT-116 (colon) are employed to study the effect of compounds according to the instant disclosure combined with radiation therapy. Mice are implanted with tumor fragments subcutaneously from an in vivo passage and the tumors are allowed to grow. Mice with tumors in a designated size range are selected for the studies.

[2] = tested on: SR475HN (head and neck); assay: SR475HN head and neck xenograph model, clofarabine combined with radiation; conditions: SR475 head & neck, clofarabine 30 mg/kg/dose, ip, d. 19-30, radiation 2 Gy, d. 19-23, 26-30
Text: as §1

[3] = tested on: NCI-H460 NSCL (lung); assay: NCI-H460 NSCL lung xenograph model, clofarabine combined with radiation; conditions: clofarabine 30 mg/kg/dose, ip, d. 8-17, radiation 3 Gy
Text: as §1

[4] = tested on: DU-145 (prostate); assay: DU-145 prostate xenograph model, clofarabine combined with radiation; conditions: clofarabine 30 mg/kg/dose, ip, d. 13-24, radiation 2 Gy
Text: as §1

[5] = tested on: SF-295 CNS (glioblastoma); assay: SF-295 CNS glioblastoma xenograph model, clofarabine combined with radiation; conditions: clofarabine 30 mg/kg/dose, ip, d. 8-17, radiation 3 Gy, d. 8, 11, 14, 17
Text: as §1

[6] = tested on: PANC-1 (pancreatic); assay: PANC-1 pancreatic xenograph model, clofarabine combined with radiation; conditions: clofarabine 30 mg/kg/dose, ip, d. 12-23, radiation 2 Gy
Text: as §1

[7] = tested on: tumor models; assay: Xenograph models combined with radiation therapy (overall statement); conditions: compared with clofarabine
Text: as §1

SMILES | Tumor-Free Survivors/Total ([1]; d. 13-17, 20-24) | Growth Delay (T-C, days) ([1]; d. 13-17, 20-24, based on 3 tumor doublings) | Tumor-Free Survivors/Total [2] | Growth Delay (T-C, days) ([2]; based on 2 tumor doublings) | Tumor-Free Survivors/Total ([3]; d. 8, 11, 14, 17) | Growth Delay (T-C, days) ([3]; d. 8, 11, 14, 17, based on time to 3 tumor doublings) | Tumor-Free Survivors/Total ([4]; d. 13-17, 20-24) | Growth Delay (T-C, days) ([4]; d. 13-17, 20-24, combination: clofarabine first, radiation 1 hour later) | Growth Delay (T-C, days) [5] | Tumor-Free Survivors/Total [5] | Tumor-Free Survivors/Total ([6]; d. 12-16, 19-23) | Growth Delay (T-C, days) ([6]; d. 12-16, 19-23, based on 2 tumor doublings) | radiosensitizing capacity [7]
Nc1nc(Cl)nc2c1ncn2[C@@H]1O[C@H](CO)[C@@H](O)[C@@H]1F [Clofarabine] | 0/6 | 24.2 days | 0/6 | 18.2 days | 0/6 | 4.6 days | 0/6 | 4.3 days | -0.8 days | 0/6 | 0/6 | 17.2 days | –
Nc1ccn([C@@H]2O[C@H](CO)[C@@H](O)C2(F)F)c(=O)n1 [gemcitabine] | – | – | – | – | – | – | – | – | – | – | – | – | tracked with the clofarabine results
